Experiment: Evaluation of restricted permeability of in vitro BBB model with fluorescein sodium (Transwell)
Assay type: in vitro ADME, mouse
Settings: NaFl 10 μg/mL in upper chamber, read-out: permeability coefficient Papp
Method: Experimental method: an in vitro blood-brain barrier model was established to evaluate the permeability of dual-modality nanoprobes. U87-MG cells and bEnd.3 cells were cultured in high glucose DMEM containing 10% fetal bovine serum and 1% penicillin/streptomycin at 37° C. and 5% CO2. A thin layer of collagen solution was evenly coated on the inner side of Transwell poly microporous lipid membrane, the membrane was placed on an ultra-clean table for about 30 min, and it was used after naturally dried. bEnd.3 cells were inoculated into the upper chamber of a 24-well Transwell at a density of 5×10^4 cells/well. Two days later, U87-MG cells were inoculated into the lower chamber of the upper chamber at a density of 1×10^5 cells/well, and the two kind of cells were continued to co-culture for one week.
The permeability of BBB in vitro was evaluated by fluorescein sodium, and a series of standard solutions of fluorescein sodium (NaFl) were prepared with PBS, with the concentrations of 0.05, 0.10, 0.15, 0.20, 0.25, 0.30, 0.35, 0.40, 0.45 and 0.50 μg/mL, respectively. The absorbance value was measured with a multifunctional ELISA reader (the excitation wavelength was set at 485 nm and the detection wavelength was 535 nm). Then the standard curve of NaFl concentration and absorbance value was made. […]

Compound: O=C1OC2(c3ccc(O)cc3Oc3cc(O)ccc32)c2ccccc21 [NaFl, Fluorescein sodium]
- Papp A→B at 10 μg/mL (mouse, BBB model group, 30, 60, 90 min): 11.2 ± 0.73 ×10⁻⁶ cm/s
- Papp at 10 μg/mL (small blank chamber (no cells)): 67.8 ×10⁻⁶ cm/s

Reference: patent US20210338842A1, “DUAL-MODALITY NANOPROBE TARGETING GLIOBLASTOMA AND PREPARATION METHOD THEREOF” (West China Hospital of Sichuan University, priority 2020, published 2021)
